Data reported in PMC10771296, “Plectasin: from evolution to truncation, expression, and better druggability” (Frontiers in Microbiology, 2023).
Where a SMILES comes first, the peptide text is derived from it. Bridges are numbered along the chain shown (N, C = ends).

How the values were obtained:
S. aureus ATCC43300 = test: Time-kill curve (bacterial kinetics in vitro); format: cell-based, Staphylococcus aureus; conditions: 1 × 10^5 CFU/mL, 37°C, 250 rpm, colony counting
Procedure: The bactericidal efficiency of Ple-AB was evaluated by plotting a time-kill curve ([Zheng et al., 2021]). Single colonies of the S. aureus ATCC43300 were picked for overnight activation, and 1% were transferred and incubated at 37°C until the logarithmic growth phase. […] Samples of 100 uL of bacteria were taken at 0, 0.5, 1, 2, 4, 6, 8, 10, 12, and 24 h, diluted, and coated to count the number of single colonies and plot the time-killing curve.

mouse erythrocytes = test: Hemolysis; format: cell-based; conditions: 8% mouse erythrocyte suspension, 37°C
Procedure: The hemolytic properties of the peptides were evaluated by measuring the amount of hemoglobin released from fresh mouse erythrocytes ([Yang et al., 2019]). Blood was collected from mice in sodium heparin anticoagulation tubes, and the erythrocytes were washed three or more times with 0.9% saline to obtain an 8% erythrocyte suspension. The erythrocyte suspension was mixed with an equal volume of Ple-AB at concentrations of 0.5–256 μg/mL, incubated at 37°C, and the absorbance values were measured at 540 nm. PBS and 0.1% Triton X-100 were used as the blank (A0) and positive controls (A100), respectively. Hemolysis (%) = [(A – A0)/(A100 – A0)] × 100, and three replicates were conducted for each case.

CC[C@H](C)[C@@H]1NC(=O)[C@H](CO)NC(=O)[C@H](CCCCN)NC(=O)[C@@H]2CSSC[C@@H](C(=O)N[C@@H](Cc3ccc(O)cc3)C(=O)O)NC(=O)[C@H](CCCCN)NC(=O)[C@@H]3CSSC[C@H](NC(=O)[C@H](CCC(N)=O)NC(=O)[C@H](CCSC)NC(=O)[C@H](CCC(=O)O)NC(=O)[C@H](CC(=O)O)NC(=O)[C@H](Cc4c[nH]c5ccccc45)NC(=O)[C@@H]4CCCN4C(=O)[C@@H](NC(=O)CNC(=O)[C@H](Cc4ccccc4)NC(=O)CN)CSSC[C@H](NC(=O)[C@H](Cc4ccc(O)cc4)NC(=O)CNC(=O)CNC(=O)[C@H](CCCCN)NC(=O)[C@H](Cc4ccc(O)cc4)NC(=O)CNC(=O)[C@H](CCCCN)NC1=O)C(=O)N[C@@H](C)C(=O)N[C@@H](CCCCN)C(=O)NCC(=O)NCC(=O)N[C@@H](Cc1ccccc1)C(=O)N[C@@H](C(C)C)C(=O)N3)C(=O)N[C@@H](Cc1c[nH]cn1)C(=O)N[C@@H](CC(N)=O)C(=O)N[C@@H](Cc1c[nH]cn1)C(=O)N2 [Ple-AB] (H-GFGCPWDEMQCHNHCKSIKGYKGGYCAKGGFVCKCY-OH; disulfide 4-26, 11-33, 15-35; N-terminus and C-terminus assumed)
Time to kill all the strains (S. aureus ATCC43300; 1× MIC): ≤ 4 h | Time to kill all the strains (S. aureus ATCC43300; 2× MIC): ≤ 4 h | Time to 99% bactericidal activity (S. aureus ATCC43300; 4× MIC): ≤ 2 h | Hemolytic rate (mouse erythrocytes; all concentrations 0.5–256 μg/mL, A540, three replicates): less than 2% | Hemolytic rate (mouse erythrocytes; highest concentration, 256 μg/mL, A540): 1.07%
